Measurements from patent US20100048950A1 (BOEHRINGER INGELHEIM INTERNATIONAL GMBH, priority 2007, published 2010).

Target: T1, human glucocorticoid receptor (GR) complex (Homo sapiens, UniProt P04150)
T1 construct: made in house; host or cells: insect expression system (baculovirus lysate)
T1 sequence (P04150 1-777): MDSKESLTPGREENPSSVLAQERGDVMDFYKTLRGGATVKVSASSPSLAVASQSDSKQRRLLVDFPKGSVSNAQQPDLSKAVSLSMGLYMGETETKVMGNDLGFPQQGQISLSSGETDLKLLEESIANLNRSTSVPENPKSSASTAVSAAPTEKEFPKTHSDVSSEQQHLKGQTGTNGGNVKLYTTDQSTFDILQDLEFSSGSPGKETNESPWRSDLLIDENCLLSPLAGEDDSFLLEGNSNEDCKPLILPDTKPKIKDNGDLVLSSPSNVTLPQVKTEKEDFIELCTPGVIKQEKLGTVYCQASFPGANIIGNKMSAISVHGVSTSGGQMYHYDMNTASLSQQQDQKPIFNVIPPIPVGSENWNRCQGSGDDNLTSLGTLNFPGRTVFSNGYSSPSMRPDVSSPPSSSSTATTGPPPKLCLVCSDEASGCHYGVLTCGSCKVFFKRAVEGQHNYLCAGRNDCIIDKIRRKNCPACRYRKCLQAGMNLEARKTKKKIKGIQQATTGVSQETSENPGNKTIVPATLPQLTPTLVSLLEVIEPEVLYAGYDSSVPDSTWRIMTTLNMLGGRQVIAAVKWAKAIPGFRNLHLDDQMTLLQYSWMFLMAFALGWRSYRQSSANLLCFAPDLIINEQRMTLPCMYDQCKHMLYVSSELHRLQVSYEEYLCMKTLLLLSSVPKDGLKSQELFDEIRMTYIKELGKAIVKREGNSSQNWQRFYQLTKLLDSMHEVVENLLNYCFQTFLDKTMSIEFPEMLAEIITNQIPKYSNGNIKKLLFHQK
Assay: Glucocorticoid receptor competitive binding assay (fluorescence polarization)
Details: competition with TAMRA-labeled dexamethasone, read-out: potent activity (IC50) in the GR binding assay
Protocol: Compounds of the invention were evaluated for binding to the steroid receptor by a fluorescence polarization competitive binding assay. Detailed descriptions for preparation of recombinant glucocorticoid receptor (GR) complex used in the assay is described in U.S. Patent Application Publication No. US 2003/0017503, filed May 20, 2002, and incorporated herein by reference in its entirety. Preparation of the tetramethylrhodamine (TAMRA)-labeled dexamethasone probe was accomplished using a standard literature procedure (M. Pons et al., J. Steroid Biochem., 1985, 22, pp. 267-273).
The affinity of the probe for the steroid receptor was then determined in a titration experiment. The fluorescence polarization value of the probe in assay buffer was measured on an SLM-8100 fluorometer using the excitation and emission maximum values described above. Aliquots of expression vector lysate were added and fluorescence polarization was measured after each addition until no further change in polarization value was observed. Non-linear least squares regression analysis was used to calculate the dissociation constant of the probe from the polarization values obtained for lysate binding to the probe.
This assay uses fluorescence polarization (FP) to quantitate the ability of test compounds to compete with tetramethylrhodamine (TAMRA)-labeled dexamethasone for binding to a human glucocorticoid receptor (GR) complex prepared from an insect expression system. The assay buffer was: 10 mM TES, 50 mM KCl, 20 mM Na2MoO4.2H2O, 1.5 mM EDTA, 0.04% w/v CHAPS, 10% v/v glycerol, 1 mM dithiothreitol, pH 7.4. Test compounds were dissolved to 1 mM in neat DMSO and then further diluted to 10× assay concentration in assay buffer supplemented with 10% v/v DMSO. Test compounds were serially diluted at 10× assay concentrations in 10% DMSO-containing buffer in 96-well polypropylene plates. Binding reaction mixtures were prepared in 96-well black Dynex microtiter plates by sequential addition of the following assay components to each well: 15 μL of 10× test compound solution, 85 μL of GR-containing baculovirus lysate diluted 1:170 in assay buffer, and 50 μL of 15 nM TAMRA-labeled dexamethasone. Positive controls were reaction mixtures containing no test compound; negative controls (blanks) were reaction mixtures containing 0.7 μM to 2 μM dexamethasone. The binding reactions were incubated for 1 hour at room temperature and then read for fluorescence polarization in the LJL Analyst set to 550 nm excitation and 580 nm emission, with the Rhodamine 561 dichroic mirror installed. IC50 values were determined by iterative non-linear curve fitting of the FP signal data to a 4-parameter logistic equation.

Row | IC50 [nM] | SMILES
1 | ≤ 100 | CC[C@@H](CNc1cccc2ccccc12)NS(=O)(=O)c1c(C)cc(C)cc1C [2,4,6-Trimethyl-N—[(S)-1-(naphthalen-1-ylaminomethyl)propyl]benzenesulfonamide]
2 | ≤ 100 | Cc1cc(C)c(S(=O)(=O)NC(COc2ccc(Cl)cc2)C(F)(F)F)c(C)c1 (stereo not drawn)
3 | ≤ 100 | CCc1cccc(C)c1NCC(NS(=O)(=O)c1c(C)cc(C)cc1C)C(F)(F)F (stereo not drawn) [N-{1-[(2-Ethyl-6-methylphenylamino)methyl]-2,2,2-trifluoroethyl}-2,4,6-trimethylbenzenesulfonamide]
4 | ≤ 100 | Cc1cc(C)c(S(=O)(=O)NC(COc2cc(Cl)cc(Cl)c2)C(F)(F)F)c(C)c1 (stereo not drawn) [N-[1-(3,5-Dichlorophenoxymethyl)-2,2,2-trifluoroethyl]-2,4,6-trimethylbenzenesulfonamide]
5 | ≤ 100 | Cc1cc(C)c(S(=O)(=O)NC(COc2cccc(Br)c2)C(F)(F)F)c(C)c1 (stereo not drawn) [N-[1-(3-Bromophenoxymethyl)-2,2,2-trifluoroethyl]-2,4,6-trimethylbenzenesulfonamide]
6 | ≤ 100 | Cc1cc(C)c(S(=O)(=O)NC(COc2cc(F)cc(C(F)(F)F)c2)C(F)(F)F)c(C)c1 (stereo not drawn) [2,4,6-Trimethyl-N-[2,2,2-trifluoro-1-(3-fluoro-5-trifluoromethylphenoxymethyl)ethyl]benzenesulfonamide]
7 | ≤ 100 | CCc1ccccc1SCC(NS(=O)(=O)c1c(C)cc(C)cc1C)C(F)(F)F (stereo not drawn) [N-[1-(2-Ethylphenylsulfanylmethyl)-2,2,2-trifluoroethyl]-2,4,6-trimethylbenzenesulfonamide]
8 | ≤ 100 | Cc1cc(C)c(S(=O)(=O)NC(CNc2c(Cl)cccc2Cl)C(F)(F)F)c(C)c1 (stereo not drawn) [N-{1-[(2,6-Dichlorophenylamino)methyl]-2,2,2-trifluoroethyl}-2,4,6-trimethylbenzenesulfonamide]
9 | ≤ 100 | Cc1cc(C)cc(OCC(NS(=O)(=O)c2c(C)cc(C)cc2C)C(F)(F)F)c1 (stereo not drawn) [N-[1-(3,5-Dimethylphenoxymethyl)-2,2,2-trifluoroethyl]-2,4,6-trimethylbenzenesulfonamide]
10 | ≤ 100 | Cc1ccc(SCC(NS(=O)(=O)c2c(N)cc(Cl)cc2Cl)C(F)(F)F)cc1 (stereo not drawn) [2-Amino-4,6-dichloro-N-(2,2,2-trifluoro-1-p-tolylsulfanylmethylethyl)benzenesulfonamide]
11 | ≤ 100 | Cc1cc(C)c(S(=O)(=O)NC(CSc2ccc(F)cc2)C(F)(F)F)c(C)c1 (stereo not drawn) [2,4,6-Trimethyl-N-[2,2,2-trifluoro-1-(4-fluorophenylsulfanylmethyl)ethyl]benzenesulfonamide]
12 | ≤ 100 | Cc1cc(C)c(S(=O)(=O)NC(CSc2ccc(F)c(Cl)c2)C(F)(F)F)c(C)c1 (stereo not drawn) [N-[1-(3-Chloro-4-fluorophenylsulfanylmethyl)-2,2,2-trifluoroethyl]-2,4,6-trimethylbenzenesulfonamide]
13 | ≤ 100 | Cc1cc(C)c(S(=O)(=O)NC(CSc2ccc(Cl)cc2)C(F)(F)F)c(C)c1 (stereo not drawn) [N-[1-(4-Chlorophenylsulfanylmethyl)-2,2,2-trifluoroethyl]-2,4,6-trimethylbenzenesulfonamide]
14 | ≤ 100 | Cc1cc(C)c(S(=O)(=O)NC(CNc2ccc(Cl)cc2)C(F)(F)F)c(C)c1 (stereo not drawn)
15 | ≤ 100 | Cc1ccc(OCC(NS(=O)(=O)c2c(C)cc(C)cc2C)C(F)(F)F)cc1 (stereo not drawn) [2,4,6-Trimethyl-N-(2,2,2-trifluoro-1-p-tolyloxymethylethyl)benzenesulfonamide]
16 | ≤ 100 | Cc1cc(C)c(S(=O)(=O)NC(CSc2ccccc2C(C)(C)C)C(F)(F)F)c(C)c1 (stereo not drawn) [N-[1-(2-tert-Butylphenylsulfanylmethyl)-2,2,2-trifluoroethyl]-2,4,6-trimethylbenzenesulfonamide]
17 | ≤ 100 | Cc1cc(C)c(S(=O)(=O)NC(CSc2cccc(Br)c2)C(F)(F)F)c(C)c1 (stereo not drawn) [N-[1-(3-Bromophenylsulfanylmethyl)-2,2,2-trifluoroethyl]-2,4,6-trimethylbenzenesulfonamide]
18 | ≤ 100 | Cc1cc(C)c(S(=O)(=O)NC(COc2cc(C)c(C#N)c(C)c2)C(F)(F)F)c(C)c1 (stereo not drawn) [N-[1-(4-Cyano-3,5-dimethylphenoxymethyl)-2,2,2-trifluoroethyl]-2,4,6-trimethylbenzenesulfonamide]
19 | ≤ 100 | Cc1ccc(SCC(NS(=O)(=O)c2c(C)cc(C)cc2C)C(F)(F)F)c(C)c1 (stereo not drawn) [N-[1-(2,4-Dimethylphenylsulfanylmethyl)-2,2,2-trifluoroethyl]-2,4,6-trimethylbenzenesulfonamide]
20 | ≤ 100 | Cc1cc(C)c(S(=O)(=O)NC(COc2ccc(Br)cc2)C(F)(F)F)c(C)c1 (stereo not drawn) [N-[1-(4-Bromophenoxymethyl)-2,2,2-trifluoroethyl]-2,4,6-trimethylbenzenesulfonamide]
21 | ≤ 100 | COC(=O)c1ccccc1SCC(NS(=O)(=O)c1c(C)cc(C)cc1C)C(F)(F)F (stereo not drawn) [2-[3,3,3-Trifluoro-2-(2,4,6-trimethylbenzenesulfonylamino)propylsulfanyl]benzoic acid methyl ester]
22 | ≤ 100 | Cc1cc(C)c(S(=O)(=O)NC(CNc2cccc(-c3cnco3)c2)C(F)(F)F)c(C)c1 (stereo not drawn) [2,4,6-Trimethyl-N-{2,2,2-trifluoro-1-[(3-oxazol-5-ylphenylamino)methyl]ethyl}benzenesulfonamide]
23 | ≤ 100 | Cc1cc(C)c(S(=O)(=O)NC(CNc2c(F)cc(F)cc2F)C(F)(F)F)c(C)c1 (stereo not drawn) [2,4,6-Trimethyl-N-{2,2,2-trifluoro-1-[(2,4,6-trifluorophenylamino)methyl]ethyl}benzenesulfonamide]
24 | ≤ 100 | Cc1cc(C)c(S(=O)(=O)NC(COc2cccc(OC(F)(F)F)c2)C(F)(F)F)c(C)c1 (stereo not drawn) [2,4,6-Trimethyl-N-[2,2,2-trifluoro-1-(3-trifluoromethoxyphenoxymethyl)ethyl]benzenesulfonamide]
25 | ≤ 100 | Cc1cc(C)c(S(=O)(=O)NC(CSc2cccc(OC(F)(F)F)c2)C(F)(F)F)c(C)c1 (stereo not drawn) [2,4,6-Trimethyl-N-[2,2,2-trifluoro-1-(3-trifluoromethoxyphenylsulfanylmethyl)ethyl]benzenesulfonamide]
26 | ≤ 100 | CCN(CC(NS(=O)(=O)c1c(C)cc(C)cc1C)C(F)(F)F)c1cccc(C)c1 (stereo not drawn) [N-{1-[(Ethyl-m-tolylamino)methyl]-2,2,2-trifluoroethyl}-2,4,6-trimethylbenzenesulfonamide]
27 | ≤ 100 | CC[C@@](C)(CN(CCC#N)c1cccc2ccccc12)NS(=O)(=O)c1c(C)cc(C)cc1C [N—((S)-1-{[(2-Cyanoethyl)naphthalen-1-ylamino]methyl}-1-methylpropyl)-2,4,6-trimethylbenzenesulfonamide]
28 | ≤ 100 | Cc1cc(C)c(S(=O)(=O)NC(CSc2cc(Cl)ccc2Cl)C(F)(F)F)c(C)c1 (stereo not drawn) [N-[1-(2,5-Dichlorophenylsulfanylmethyl)-2,2,2-trifluoroethyl]-2,4,6-trimethylbenzenesulfonamide]
29 | ≤ 100 | Cc1cccc(OCC(NS(=O)(=O)c2c(C)cc(C)cc2C)C(F)(F)F)c1 (stereo not drawn) [2,4,6-Trimethyl-N-(2,2,2-trifluoro-1-m-tolyloxymethylethyl)benzenesulfonamide]

Row | SMILES | IC50 [nM]
30 | Cc1cc(C)c(S(=O)(=O)NC(CNc2ccc(C#N)c(Cl)c2)C(F)(F)F)c(C)c1 (stereo not drawn) [N-{1-[(3-Chloro-4-cyanophenylamino)methyl]-2,2,2-trifluoroethyl}-2,4,6-trimethylbenzenesulfonamide] | ≤ 100
